First: Cc1ccc(S(=O)(=O)N(Cc2cc(C(C)(C)C)c(O)c(C(C)(C)C)c2)c2cccnc2Cl)cc1
Second: COc1ccccc1Oc1c(Cl)ncnc1NS(=O)(=O)c1ccc(C(C)(C)C)cc1
The melting point of the first is lower: 117 to 119 °C for the first, 152 °C for the second.

First: O=C(c1ccccc1)c1cnc2cnccc2c1O
Second: CN(C)CCC(=O)n1cc(-c2ccccc2)c2ccccc21
The melting point of the first is higher: 228 °C for the first, 137 to 138 °C for the second.

First: Cc1cc(C)nc(SCC(CS(=O)(=O)c2ccc(-c3ccc(Cl)cc3)cc2)C(=O)O)n1 (stereo not drawn)
Second: Cn1cnnc1C(O)(c1ccc(Cl)cc1)c1ccc2[nH]c(=O)cc(-c3cccc(Cl)c3)c2c1 (stereo not drawn)
The melting point of the first is lower: 170 to 172 °C for the first, greater than 260 °C for the second.

Compared with `CN1CCC(Cc2nc3ccccc3n2Cc2ccc(CO)o2)CC1`, `Nc1ccc(-c2cc(OCC(=O)N3CCOCC3)c3ccccc3n2)cc1` is higher in melting point: 158 °C for the first, 174 °C for the second.

Compared with `Oc1cc(Cl)c(-n2cnnn2)cc1Oc1ccc(Cl)cc1Cl`, `O=C(Nc1cc(=O)n(-c2c(Cl)cc(C(F)(F)F)cc2Cl)[nH]1)c1ccccc1` is higher in melting point: 147 to 148 °C for the first, 288 °C for the second.

First: CS(=O)(=O)NC(c1ccccc1)c1ccccc1
Second: C[Si](C)(C)NS(=O)(=O)c1ccccc1
The melting point of the first is higher: 148 to 150 °C for the first, 62 to 63 °C for the second.

Compared with `Cn1c(C=[N+](C)[O-])cnc1[N+](=O)[O-]`, `CC(=O)N1c2ccccc2-c2c(N)cnn2C1C` (stereo not drawn) is lower in melting point: 208 to 209 °C for the first, 170 to 172 °C for the second.

First: CC(C)(C)OC(=O)N1C[C@@H]2OCc3c(-c4ccccc4)nnn3[C@H]2C1
Second: O=Cc1c(-c2ccccc2)nc2sc3c(n12)CCCC3
The melting point of the first is higher: 236 to 237 °C for the first, 150 °C for the second.

First: COc1cc2cc(C(N)=O)c(N)nc2cc1OC
Second: COc1cc(OC)nc(-c2c(N)n(S(=O)(=O)C(F)F)c3ccccc23)n1
The melting point of the first is higher: 275 °C for the first, 156 to 158 °C for the second.

First: CCCCCCc1cc2c(s1)-n1c(C)nnc1C(C)N=C2c1ccccc1C (stereo not drawn)
Second: Cn1c(=O)c2c(ncn2CCCN2CC=C(c3c[nH]c4ccc(Br)cc34)CC2)n(C)c1=O
The melting point of the first is lower: 83 to 85 °C for the first, 195 °C for the second.

First: O=S1(=O)N=C(NC2CCCC2)Nc2sc(Cl)cc21
Second: C[C@@H]1CNC(=O)c2cc3c(Cl)cccc3n21
The melting point of the first is higher: 280 to 282 °C for the first, 180 to 184 °C for the second.

First: O=C1CCCN1CCCN=c1sc2ccccc2s1
Second: Cc1ccc(OCCN2CCN(c3cc(Cl)nnc3Cl)CC2)cc1
The melting point of the first is higher: 101 to 104 °C for the first, 95 to 96 °C for the second.

`CC(=O)OCCCCC#Cc1ccc2c3ccc4c5c(ccc(c6cccc1c62)c53)C(=O)N(c1c(C(C)C)cccc1C(C)C)C4=O` and `O=C(O)C(Cc1ccc(OCCN2c3ccccc3Oc3ccccc32)cc1)C(=O)O` cannot be ordered by melting point: greater than 300 °C for the first, 303 to 307 °C for the second.

Compared with `CC1(C)C(C=C2CCCC2)C1C(=O)OC(C#N)c1ccc(F)c(Oc2ccccc2)c1` (stereo not drawn), `COC(=O)C1C=CCN2C(=O)C(CCOS(C)(=O)=O)(Cc3ccccc3)C(=O)N12` (stereo not drawn) is higher in melting point: 81 °C for the first, 161 to 163 °C for the second.

First: CNC(=O)c1ncn(C(OC)c2ccc(Cl)c(Cl)c2)c1C(=O)NC (single isomer, unassigned; (+))
Second: CCNC(=O)c1ccccc1Nc1nc(Nc2cc3c(cc2OC)CC(=O)NCC3)ncc1Cl
The melting point of the first is lower: 112 to 114 °C for the first, greater than 250 °C for the second.

Compared with `O=[N+]([O-])c1oc2c(NS(=O)(=O)C(F)(F)F)cccc2c1-c1ccccc1`, `O=C(Nc1cccc(-c2ncno2)c1)Oc1ccc([N+](=O)[O-])cc1` is higher in melting point: 168 to 170 °C for the first, 195 to 197 °C for the second.

Compared with `O=C(O)c1cncc(O)c1`, `COc1cc(OC)c(-c2cc3ccccc3n2C(=O)OC(C)(C)C)cc1/C=C/C(=O)c1ccc(C(=O)O)cc1` is lower in melting point: greater than 260 °C for the first, 182 to 183 °C for the second.

Compared with `O=C(NN1CCOCC1)OCCCCCCOC(=O)NN1CCOCC1`, `COc1ccc(S(=O)(=O)Nc2nc(-c3cccc([N+](=O)[O-])c3)c(CN3CCOCC3)s2)cc1OC` is lower in melting point: 197 to 199 °C for the first, 143 °C for the second.

First: O=C(Nc1cc(-c2cccc(-c3ccccc3)c2)[nH]n1)C1Cc2ccccc2C1
Second: CN1CCN(c2ncc(-c3ccccc3)c(C(=O)N(C)Cc3cc(C(F)(F)F)cc(C(F)(F)F)c3)n2)CC1
The melting point of the first is lower: 108 to 110 °C for the first, 162 to 163 °C for the second.
